# Measurements: patent US5006527A, “Pharmacologically active N-(4-piperidinyl) bicyclic condensed 2-imidazolamine derivatives” (Janssen Pharmaceutica N.V., priority 1989, dated 1991)
# Test system: compound 48/80-induced lethality
# Experiment: Protection of rats from compound 48/80-induced lethality
# Format: in vivo, rat (male, inbred Wistar strain)
# Conditions: Rattus norvegicus; test compound subcutaneously or orally (route not specified per compound); compound 48/80 0.5 mg/kg i.v. one hour after treatment; survival after 4 hours; protection of 50% of animals; read-out: compound 48/80 lethality test in rate-ED50
# Description: Protection of rats from compound 48/80-induced lethality
# The protection from compound 48/80-induced lethal circulatory collapse appears to be a simple way of evaluating quantitatively the antihistaminic activity of test compounds. Male rats of an inbred Wistar strain, weighting 240-260 g were used in the experiment. After overnight starvation the rats were transferred to conditioned laboratories (temp. =21±1° C., relative humidity =65±5%).
# The rats were treated subcutaneously or orally with a test compound or with the solvent (NaCl solution, 0.9%). One hour after treatment there was injected intravenously compound 48/80, freshly dissolved in water, at a dose of 0.5 mg/kg (0.2 ml/100 g of body weight). In control experiments, wherein 250 solvent-treated animals were injected with the standard dose of compound 48/80, not more than 2.8% of the animals survived after 4 hours. Survival after 4 hours is therefore considered to be a safe criterion of a protective effect of drug administration. Said ED50 -values are the values in mg/kg body weight at which the tested compounds protect 50% of the tested animals against compound 48/80-inducedlethality.
row,Structure (SMILES),ED50 [mg/kg]
1,Cc1ccc(Cn2c(NC3CCN(C)CC3)nc3cccnc32)o1 [Compound 1],0.005
2,"CCN1CCC(Nc2nc3cccnc3n2Cc2ccc(C)o2)CC1.O=C(O)/C=C/C(=O)O.O=C(O)/C=C/C(=O)O [Compound 4, N-(1-ethyl-4-piperidinyl)-3-[(5-methyl-2-furanyl)methyl]-3H-imidazo[4,5-b]-pyridin-2-amine (E)-2-butenedioate(1:2)]",0.0025
3,"C=CCN1CCC(Nc2nc3cccnc3n2Cc2ccc(C)o2)CC1.O=C(O)/C=C/C(=O)O.O=C(O)/C=C/C(=O)O [Compound 5, 3-[(5-methyl-2-furanyl)methyl]-N-[1-(2-propenyl)-4-piperidinyl]-3H-imidazo-[4,5-b]pyridin-2-amine (E)-2-butenedioate(1:2)]",0.005
4,Cc1ccc(Cn2c(NC3CCN(C/C=C/c4ccccc4)CC3)nc3cccnc32)o1 [Compound 6],0.04
5,CCOCCN1CCC(Nc2nc3cccnc3n2Cc2ccc(C)o2)CC1 [Compound 7],0.02
6,Cc1ccc(Cn2c(NC3CCN(CCCOc4ccccc4)CC3)nc3cccnc32)o1 [Compound 8],0.04
7,Cc1ccc(Cn2c(NC3CCN(CCn4c(=O)[nH]c5ccccc54)CC3)nc3cccnc32)o1 [Compound 9],0.02
8,CCn1nnn(CCN2CCC(Nc3nc4cccnc4n3Cc3ccc(C)o3)CC2)c1=O [Compound 10],0.04
9,CCN1CCC(Nc2nc3ccccc3n2Cc2ccc(C)o2)CC1 [Compound 11],0.01
10,COc1ccc(CCN2CCC(Nc3nc4ccccc4n3Cc3ccc(C)o3)CC2)cc1 [Compound 13],0.04
11,Cc1ccc(Cn2c(NC3CCN(CCc4cccs4)CC3)nc3cccnc32)o1 [Compound 15],0.04
12,CC(=O)CCCN1CCC(Nc2nc3cccnc3n2Cc2ccc(C)o2)CC1 [Compound 18],0.01
13,"CCn1nnn(CCN2CCC(Nc3nc4ccccc4n3Cc3ccc(C)o3)CC2)c1=O.O=C(O)C(=O)O.O=C(O)C(=O)O [Compound 22, 1-ethyl-1,4-dihydro-4-[2-[4-[[1-[(5-methyl-2-furanyl)methyl]-1H-benzimidazol-2-yl]-amino]-1-piperidinyl]ethyl]-5H-tetrazol-5-one ethanedioate(1:2)]",0.04
14,Cc1ccc(Cn2c(NC3CCN(CC(O)COc4ccccc4)CC3)nc3cccnc32)o1 (stereo not shown) [Compound 26],0.04
15,CCc1ccc(Cn2c(NC3CCN(C)CC3)nc3cccnc32)o1 [Compound 29],0.04
16,Cc1occc1Cn1c(NC2CCN(C)CC2)nc2cccnc21 [Compound 36],0.04
17,CCCCN1CCC(Nc2nc3cccnc3n2Cc2ccc(C)o2)CC1 [Compound 37],0.02
18,Cc1ccc(Cn2c(NC3CCN(CCCn4c(=O)[nH]c5ccccc54)CC3)nc3cccnc32)o1 [Compound 38],0.02
19,CCCCCCN1CCC(Nc2nc3cccnc3n2Cc2ccc(C)o2)CC1 [Compound 39],0.04
20,"CNC(=O)NCCN1CCC(Nc2nc3ccccc3n2Cc2ccc(C)o2)CC1 [Compound 40, N-methyl-N'-[2-[4-[[1-[(5-methyl-2-furanyl)methyl]-1H-benzimidazol-2-yl]amino]-1-piperidinyl]ethyl]urea]",0.02
21,CC(=O)CCN1CCC(Nc2nc3cccnc3n2Cc2ccc(C)o2)CC1 [Compound 41],0.01
22,CCCCCN1CCC(Nc2nc3cccnc3n2Cc2ccc(C)o2)CC1 [Compound 42],0.04
23,Cc1ccc(Cn2c(NC3CCN(CCCC(=O)c4ccc(F)cc4)CC3)nc3cccnc32)o1 [Compound 46],0.04
24,Cc1occc1Cn1c(NC2CCN(CCn3c(=O)[nH]c4ccccc43)CC2)nc2cccnc21 [Compound 53],0.04
25,Cc1ccoc1Cn1c(NC2CCN(C)CC2)nc2cccnc21 [Compound 56],0.04
26,Cc1coc(Cn2c(NC3CCN(C)CC3)nc3cccnc32)c1 [Compound 62],0.005
27,Cc1coc(Cn2c(NC3CCN(CCn4c(=O)[nH]c5ccccc54)CC3)nc3cccnc32)c1 [Compound 63],0.04
28,COc1ccc(CCN2CCC(Nc3nc4cccnc4n3Cc3cc(C)co3)CC2)cc1 [Compound 64],0.04
